Test results taken from patent US20200045961A1, “HERBICIDAL MIXTURE FOR USE ON WEEDS” (Adama Agan Ltd., priority 2017, published 2020).

What was measured:
Test in all cases: Field trial, tank mix of Propaquizafop + Fomesafen on Soybean, weed control
Type in all cases: in vivo
Digera arvensis = test system: Digera arvensis
Description: (§1) In the context of the present subject matter, the term “synergy” is as defined by Colby S. R. in an article entitled “Calculation of the synergistic and antagonistic responses of herbicide combinations” published in the journal Weeds, 1967, 15, p. 20-22, incorporated herein by reference in its entirety. The action expected for a given combination of […] active ingredients can be calculated as follows: […]
(§2) When the percentage of herbicidal control observed for the combination is greater than the expected percentage, there is a synergistic effect. When the percentage of control observed for the combination is equal to the expected percentage, there is an additive effect and wherein the percentage of herbicidal control observed for the combination is lower than the expected percentage, there is an antagonistic effect.
(§3) The herbicides were applied using the following applications rates:
(§4) The applications were applied 20 DAS. Design & Plot size: RBD & 25 Sq.mt.
(§5) Species wise weed count may be recorded at 15, 30 and 45 DAA (Days After Application). A subjective score of damage done by the herbicide on the plants may be given based on the weed count compared to the untreated checks. A score of 100% indicated complete control and a score of 0% indicates zero herbicide effect.
(§6) The % control observed may be calculated as follows: […]
(§7) The synergy of the mixture of fomesafen and propaquizafop may be calculated using the formula: […]

Acalypha indica = test system: Acalypha indica
Description: as §1, §2, §3, §4, §5, §6, §7

Echinochloa colona = test system: Echinochloa colona
Description: as §1, §2, §3, §4, §5, §6, §7

Amaranthus viridis = test system: Amaranthus viridis
Description: as §1, §2, §3, §4, §5, §6, §7

Eleusine indica = test system: Eleusine indica
Description: as §1, §2, §3, §4, §5, §6, §7

Commelina benghalensis = test system: Commelina benghalensis
Description: as §1, §2, §3, §4, §5, §6, §7

Dinebra arabica = test system: Dinebra arabica
Description: as §1, §3, §4, §5

Structure (SMILES): CC(C)=NOCCOC(=O)[C@@H](C)Oc1ccc(Oc2cnc3cc(Cl)ccc3n2)cc1 [Propaquizafop, (R)-2-[[(1-methylethylidene)amino]oxy]ethyl 2-[4-[(6-chloro-2-quinoxalinyl)oxy]phenoxy]propanoate]
- % control observed (Digera arvensis; 400 ml/Acre, 15DAA): 13.9%
- % control observed (Digera arvensis; 400 ml/Acre, 30DAA): 9.3%
- % control observed (Digera arvensis; 400 ml/Acre, 45DAA): 2.1%
- % control observed (Digera arvensis; 500 ml/Acre, 15DAA): 19.5%
- % control observed (Digera arvensis; 500 ml/Acre, 30DAA): 15.5%
- % control observed (Digera arvensis; 500 ml/Acre, 45DAA): 14.4%
- % control observed (Acalypha indica; 400 ml/Acre, 15DAA): 7.1%
- % control observed (Acalypha indica; 400 ml/Acre, 30DAA): 3.7%
- % control observed (Acalypha indica; 400 ml/Acre, 45DAA): 2.9%
- % control observed (Acalypha indica; 500 ml/Acre, 15DAA): 25.2%
- % control observed (Acalypha indica; 500 ml/Acre, 30DAA): 12.3%
- % control observed (Acalypha indica; 500 ml/Acre, 45DAA): 9.8%
- % control observed (Echinochloa colona; 400 ml/Acre, 15DAA): 72.9%
- % control observed (Echinochloa colona; 400 ml/Acre, 30DAA): 70.8%
- % control observed (Echinochloa colona; 400 ml/Acre, 45DAA): 70.4%
- % control observed (Echinochloa colona; 500 ml/Acre, 15DAA): 75.8%
- % control observed (Echinochloa colona; 500 ml/Acre, 30DAA): 73.9%
- % control observed (Echinochloa colona; 500 ml/Acre, 45DAA): 72.9%
- % control observed (Amaranthus viridis; 400 ml/Acre, 15DAA): 8.2%
- % control observed (Amaranthus viridis; 400 ml/Acre, 30DAA): 2.6%
- % control observed (Amaranthus viridis; 400 ml/Acre, 45DAA): 2.3%
- % control observed (Amaranthus viridis; 500 ml/Acre, 15DAA): 13.6%
- % control observed (Amaranthus viridis; 500 ml/Acre, 30DAA): 7.6%
- % control observed (Amaranthus viridis; 500 ml/Acre, 45DAA): 7.1%
- % control observed (Eleusine indica; 400 ml/Acre, 15DAA): 64%
- % control observed (Eleusine indica; 400 ml/Acre, 30DAA): 56.7%
- % control observed (Eleusine indica; 400 ml/Acre, 45DAA): 53.4%
- % control observed (Eleusine indica; 500 ml/Acre, 15DAA): 65.5%
- % control observed (Eleusine indica; 500 ml/Acre, 30DAA): 57.7%
- % control observed (Eleusine indica; 500 ml/Acre, 45DAA): 55.2%
- % control observed (Commelina benghalensis; 400 ml/Acre, 15DAA): 6.8%
- % control observed (Commelina benghalensis; 400 ml/Acre, 30DAA): 3.2%
- % control observed (Commelina benghalensis; 400 ml/Acre, 45DAA): 2%
- % control observed (Commelina benghalensis; 500 ml/Acre, 15DAA): 16.6%
- % control observed (Commelina benghalensis; 500 ml/Acre, 30DAA): 10.5%
- % control observed (Commelina benghalensis; 500 ml/Acre, 45DAA): 7.7%
- % control observed (Dinebra arabica; 400 ml/Acre, 15DAA): 68.2%
- % control observed (Dinebra arabica; 400 ml/Acre, 30DAA): 67%
- % control observed (Dinebra arabica; 400 ml/Acre, 45DAA): 65%
- % control observed (Dinebra arabica; 500 ml/Acre, 15DAA): 72.3%
- % control observed (Dinebra arabica; 500 ml/Acre, 30DAA): 69.1%
- % control observed (Dinebra arabica; 500 ml/Acre, 45DAA): 66%

Structure (SMILES): CS(=O)(=O)NC(=O)c1cc(Oc2ccc(C(F)(F)F)cc2Cl)ccc1[N+](=O)[O-] [Fomesafen, 5-[2-chloro-4-(trifluoromethyl)phenoxy]-N-(methylsulfonyl)-2-nitrobenzamide]
- % control observed (Digera arvensis; 500 ml/Acre, 15DAA): 70%
- % control observed (Digera arvensis; 500 ml/Acre, 30DAA): 68.5%
- % control observed (Digera arvensis; 500 ml/Acre, 45DAA): 66.6%
- % control observed (Digera arvensis; 750 ml/Acre, 15DAA): 74.2%
- % control observed (Digera arvensis; 750 ml/Acre, 30DAA): 71.5%
- % control observed (Digera arvensis; 750 ml/Acre, 45DAA): 70.5%
- % control observed (Digera arvensis; 1000 ml/Acre, 15DAA): 78.2%
- % control observed (Digera arvensis; 1000 ml/Acre, 30DAA): 75.2%
- % control observed (Digera arvensis; 1000 ml/Acre, 45DAA): 74%
- % control observed (Acalypha indica; 500 ml/Acre, 15DAA): 58.2%
- % control observed (Acalypha indica; 500 ml/Acre, 30DAA): 55.4%
- % control observed (Acalypha indica; 500 ml/Acre, 45DAA): 53.8%
- % control observed (Acalypha indica; 750 ml/Acre, 15DAA): 63.8%
- % control observed (Acalypha indica; 750 ml/Acre, 30DAA): 61.7%
- % control observed (Acalypha indica; 750 ml/Acre, 45DAA): 60.6%
- % control observed (Acalypha indica; 1000 ml/Acre, 15DAA): 75.9%
- % control observed (Acalypha indica; 1000 ml/Acre, 30DAA): 73.6%
- % control observed (Acalypha indica; 1000 ml/Acre, 45DAA): 72.6%
- % control observed (Echinochloa colona; 500 ml/Acre, 15DAA): 8.91%
- % control observed (Echinochloa colona; 500 ml/Acre, 30DAA): 6.65%
- % control observed (Echinochloa colona; 500 ml/Acre, 45DAA): 5.02%
- % control observed (Echinochloa colona; 750 ml/Acre, 15DAA): 14%
- % control observed (Echinochloa colona; 750 ml/Acre, 30DAA): 10.7%
- % control observed (Echinochloa colona; 750 ml/Acre, 45DAA): 7.5%
- % control observed (Echinochloa colona; 1000 ml/Acre, 15DAA): 18.2%
- % control observed (Echinochloa colona; 1000 ml/Acre, 30DAA): 15.8%
- % control observed (Echinochloa colona; 1000 ml/Acre, 45DAA): 13.6%
- % control observed (Amaranthus viridis; 500 ml/Acre, 15DAA): 67.7%
- % control observed (Amaranthus viridis; 500 ml/Acre, 30DAA): 66.9%
- % control observed (Amaranthus viridis; 500 ml/Acre, 45DAA): 64.8%
- % control observed (Amaranthus viridis; 750 ml/Acre, 15DAA): 71.3%
- % control observed (Amaranthus viridis; 750 ml/Acre, 30DAA): 70.5%
- % control observed (Amaranthus viridis; 750 ml/Acre, 45DAA): 69.1%
- % control observed (Amaranthus viridis; 1000 ml/Acre, 15DAA): 74.7%
- % control observed (Amaranthus viridis; 1000 ml/Acre, 30DAA): 73.7%
- % control observed (Amaranthus viridis; 1000 ml/Acre, 45DAA): 71.1%
- % control observed (Eleusine indica; 500 ml/Acre, 15DAA): 8.2%
- % control observed (Eleusine indica; 500 ml/Acre, 30DAA): 4.7%
- % control observed (Eleusine indica; 500 ml/Acre, 45DAA): 3.3%
- % control observed (Eleusine indica; 750 ml/Acre, 15DAA): 12.6%
- % control observed (Eleusine indica; 750 ml/Acre, 30DAA): 6.3%
- % control observed (Eleusine indica; 750 ml/Acre, 45DAA): 5%
- % control observed (Eleusine indica; 1000 ml/Acre, 15DAA): 17.1%
- % control observed (Eleusine indica; 1000 ml/Acre, 30DAA): 8.9%
- % control observed (Eleusine indica; 1000 ml/Acre, 45DAA): 7.5%
- % control observed (Commelina benghalensis; 500 ml/Acre, 15DAA): 66.2%
- % control observed (Commelina benghalensis; 500 ml/Acre, 30DAA): 64.2%
- % control observed (Commelina benghalensis; 500 ml/Acre, 45DAA): 62.7%
- % control observed (Commelina benghalensis; 750 ml/Acre, 15DAA): 72.8%
- % control observed (Commelina benghalensis; 750 ml/Acre, 30DAA): 70.2%
- % control observed (Commelina benghalensis; 750 ml/Acre, 45DAA): 69.7%
- % control observed (Commelina benghalensis; 1000 ml/Acre, 15DAA): 77.8%
- % control observed (Commelina benghalensis; 1000 ml/Acre, 30DAA): 75%
- % control observed (Commelina benghalensis; 1000 ml/Acre, 45DAA): 72.5%
- % control observed (Dinebra arabica; 500 ml/Acre, 15DAA): 2.62%
- % control observed (Dinebra arabica; 500 ml/Acre, 45DAA): 0.21%
- % control observed (Dinebra arabica; 750 ml/Acre, 15DAA): 15.2%
- % control observed (Dinebra arabica; 750 ml/Acre, 30DAA): 11.1%
- % control observed (Dinebra arabica; 750 ml/Acre, 45DAA): 10%
- % control observed (Dinebra arabica; 1000 ml/Acre, 15DAA): 23.4%
- % control observed (Dinebra arabica; 1000 ml/Acre, 30DAA): 16.4%
- % control observed (Dinebra arabica; 1000 ml/Acre, 45DAA): 14.3%
